According to article PMC4557289, “Thymoproteasomes produce unique peptide motifs for positive selection of CD8^+ T cells” (Nature Communications, 2015):
“Also recorded” adds a separate entry of the source.

Key:
[1] = system: thymus lobes from Tap1^−/− OT-I TCR transgenic mice; test: fetal thymus organ culture (FTOC) of OT-I thymocytes; type: cell-based, mouse; conditions: E15 thymus lobes, peptide 20 μM, 3 days, result in words
Procedure: FTOC was essentially performed as described previously. Embryonic mice on day 15 of gestation were obtained from Tap1^−/− OT-I TCR transgenic mice. Thymus lobes were cultured on Isopore membrane filters (Millipore) placed on Gelfoam sponge (Pfizer) floated in medium. Peptides were added at a concentration of 20 μM. After 3 days in the culture, thymocytes were stained with antibodies specific for CD4 (GK1.5), CD8 (53-6.7) and Vα2 (B20.1) and analysed using flow cytometry; staining antibodies were obtained from Biolegend and were used at 10 μg ml^−1.

[2] = system: OT-I TCR; test: agonist activity assay (T-cell stimulation, CD69), mature OT-I cells; type: cell-based, mouse; conditions: splenocytes from Rag^−/− OT-I TCR transgenic mice (n=3), peptide 5 h, CD69 on CD8^+CD44^lo cells; Fig. 6d; result in words
Procedure: Spleen cells from Rag1^−/− OT-I TCR transgenic mice (8-week-old females) were cultured in the presence of peptides for 5 h. CD69 expression on CD8^+CD44^lo cells was analysed using flow cytometry using anti-CD69 antibodies (H1.2F3; BD Pharmingen, 10 μg ml^−1).

[3] = system: OT-I TCR; test: CD4/CD8 dulling assay, OT-I thymocytes; type: cell-based, mouse; conditions: thymocytes from Tap1^−/− OT-I TCR-transgenic mice (n=3) with peptide and irradiated B6-Ly5.1 splenocytes, 18 h, flow cytometry; Fig. 6c; result in words
Procedure: Dulling assay was performed as described[45][46] with minor modifications. Thymocytes from Tap1^−/− OT-I TCR transgenic mice were stimulated in the presence of peptides and irradiated splenocytes from B6-Ly5.1 mice (CD45.1^+CD45.2^−). Female mice at 6–8 weeks of age were used for experiments. After 18 h, thymocytes were stained with antibodies specific for CD4 (GK1.5), CD8 (53-6.7), CD45.1 (A20) and CD45.2 (104) and analysed using flow cytometry (antibodies were obtained from Biolegend and used at 10 μg ml^−1). Specific dulling of CD4 and CD8 expression induced by peptide stimulation was calculated as previously described.

[4] = system: OT-I TCR; test: MHC-tetramer-binding assay (peptide/H-2K^b tetramers); set-up: species or system mouse; conditions: peptide/H-2K^b tetramers on CD4/CD8 double-positive thymocytes from Tap1^−/− OT-I TCR-transgenic mice, 100 μM cytochalasin D, 37 °C, 90 min, flow cytometry; Fig. 6b; result in words
Procedure: CD4/CD8 double-positive thymocytes from Tap1^−/− OT-I TCR transgenic mice (6- to 8-week-old females) were stained with indicated peptide-K^b tetramers (MBL) in the presence of 100 μM cytochalasin D (Sigma-Aldrich) at 37 °C for 90 min (refs [31], [44]) and were analysed using flow cytometry.

[5] = system: OT-I thymocytes; conditions: known classification of OVAp and variants, Fig. 6a; cited from earlier work
Text: To examine whether these peptide features play roles in thymic selection, we employed the OVA-specific TCR transgenic line OT-I, which is the best-studied model of amino-acid substitution in MHC-associated peptides for thymic selection of functionally competent MHC-I-restricted T cells. […] We then tested OVAp variant peptides with tCP ... || Figure 6 OVAp peptide variants with tCP-dependent motifs show lower affinities to OT-I TCR. (a) List of OVAp variants used for assays in b–d and Fig. 7a,b. (b) Binding of peptide/H-2K^b tetramers to CD4/CD8 double-positive thymocytes from Tap1^−/− OT-I TCR-transgenic mice. (c) Dulling of CD4/CD8 co-receptors in OT-I thymocytes by OVAp variants. Thymocytes from Tap1^−/− OT-I TCR-transgenic mice (n=3) were stimulated in the presence of peptides at indicated concentrations and irradiated splenocytes from B6-Ly5.1 mice. (d) Activation of mature OT-I cells by OVAp variants. Splenocytes from Rag2^−/ ...

SIINFEKL [OVAp]
CD4/CD8 double-positive cells in FTOC ([1]; Fig. 7a,b): depletion of CD4/CD8 double-positive cells | number of OT-I TCR^high (Vα2^high) CD8 single-positive thymocytes in FTOC, compared with unrelated peptide gp33 ([1]; Fig. 7b, n=3, Student's t-test): clear decrease | affinity to OT-I TCR by agonist activity assay [2]: high affinity | affinity to OT-I TCR by CD4/CD8 dulling assay [3]: high affinity | affinity to OT-I TCR by MHC-tetramer-binding assay [4]: high affinity | Effects on DP thymocytes (thymic selection of OT-I thymocytes) [5]: mediates negative selection; also recorded: Negative selector, original Ag
